Laboratory results reported in PubChem BioAssay (NCI).
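Results reflect a 48-hour exposure of cells in 96-well plates to compound at five concentrations. Here, GI50 denotes the concentration required for 50% inhibition of growth. The concentration for full growth arrest is given as TGI.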

How the values were obtained:
Test in all cases: inhibition of tumour cell growth, NCI panel, 48 h
SK-MEL-5 melanoma = tested on: SK-MEL-5 melanoma
A498 renal = tested on: A498 renal
MCF7 breast = tested on: MCF7 breast
UACC-257 melanoma = tested on: UACC-257 melanoma
T-47D breast = tested on: T-47D breast
LOX IMVI melanoma = tested on: LOX IMVI melanoma
BT-549 breast = tested on: BT-549 breast
MALME-3M melanoma = tested on: MALME-3M melanoma
HCT-116 colon = tested on: HCT-116 colon
DU-145 prostate = tested on: DU-145 prostate
SF-539 CNS = tested on: SF-539 CNS
OVCAR-4 ovarian = tested on: OVCAR-4 ovarian
MDA-MB-231 breast = tested on: MDA-MB-231 breast
HCC-2998 colon = tested on: HCC-2998 colon
OVCAR-3 ovarian = tested on: OVCAR-3 ovarian
OVCAR-8 ovarian = tested on: OVCAR-8 ovarian
KM12 colon = tested on: KM12 colon
NCI-H522 lung = tested on: NCI-H522 lung
NCI-H226 lung = tested on: NCI-H226 lung
NCI-H460 lung = tested on: NCI-H460 lung
786-0 renal = tested on: 786-0 renal
SK-MEL-28 melanoma = tested on: SK-MEL-28 melanoma
SF-268 CNS = tested on: SF-268 CNS
HS 578T breast = tested on: HS 578T breast
CAKI-1 renal = tested on: CAKI-1 renal
PC-3 prostate = tested on: PC-3 prostate
RPMI-8226 leukemia = tested on: RPMI-8226 leukemia
UACC-62 melanoma = tested on: UACC-62 melanoma
SR leukemia = tested on: SR leukemia
K-562 leukemia = tested on: K-562 leukemia
HOP-92 NSCLC = tested on: HOP-92 NSCLC
NCI/ADR-RES ovarian = tested on: NCI/ADR-RES ovarian
RXF 393 renal = tested on: RXF 393 renal
SNB-75 CNS = tested on: SNB-75 CNS
HCT-15 colon = tested on: HCT-15 colon
SF-295 CNS = tested on: SF-295 CNS
SK-MEL-2 melanoma = tested on: SK-MEL-2 melanoma
NCI-H23 lung = tested on: NCI-H23 lung
U251 CNS = tested on: U251 CNS
TK-10 renal = tested on: TK-10 renal
A549 NSCLC = tested on: A549 NSCLC
SW-620 colon = tested on: SW-620 colon
SK-OV-3 ovarian = tested on: SK-OV-3 ovarian
COLO 205 colon = tested on: COLO 205 colon
HOP-62 NSCLC = tested on: HOP-62 NSCLC
CCRF-CEM leukemia = tested on: CCRF-CEM leukemia
SNB-19 CNS = tested on: SNB-19 CNS
SN12C renal = tested on: SN12C renal
EKVX NSCLC = tested on: EKVX NSCLC
HL-60(TB) leukemia = tested on: HL-60(TB) leukemia
MOLT-4 leukemia = tested on: MOLT-4 leukemia
IGROV1 ovarian = tested on: IGROV1 ovarian
OVCAR-5 ovarian = tested on: OVCAR-5 ovarian
UO-31 renal = tested on: UO-31 renal
HT29 colon = tested on: HT29 colon

`N[C@@H]1CCCN(c2c(Br)cnc3[nH]cc(NC(=O)C4CC4)c23)C1` was tested, and the GI50 (SK-MEL-5 melanoma) was 469 nM, the TGI (SK-MEL-5 melanoma) was 2240 nM and the GI50 (A498 renal) was 41.2 nM. It also gave a TGI (A498 renal) of 182 nM, a GI50 (MCF7 breast) of 123 nM and a TGI (MCF7 breast) of over 100000 nM. The TGI (UACC-257 melanoma) was over 100000 nM, the GI50 (T-47D breast) was 38200 nM and the TGI (T-47D breast) was over 100000 nM. For the same compound, the GI50 (LOX IMVI melanoma) was 435 nM, the TGI (LOX IMVI melanoma) was 13400 nM and the GI50 (BT-549 breast) was 450 nM. For the same compound, the TGI (BT-549 breast) was 38000 nM, the GI50 (MALME-3M melanoma) was 1270 nM and the TGI (MALME-3M melanoma) was over 100000 nM. The GI50 (HCT-116 colon) was 10600 nM, the TGI (HCT-116 colon) was over 100000 nM and the GI50 (DU-145 prostate) was 459 nM. The TGI (DU-145 prostate) was over 100000 nM, the GI50 (SF-539 CNS) was 80.9 nM and the TGI (SF-539 CNS) was 503 nM. The GI50 (OVCAR-4 ovarian) was 341 nM, the TGI (OVCAR-4 ovarian) was over 100000 nM and the GI50 (MDA-MB-231 breast) was 2910 nM. For the same compound, the TGI (MDA-MB-231 breast) was 77500 nM, the GI50 (HCC-2998 colon) was 399 nM and the TGI (HCC-2998 colon) was over 100000 nM. For the same compound, the GI50 (OVCAR-3 ovarian) was 364 nM, the TGI (OVCAR-3 ovarian) was over 100000 nM and the GI50 (OVCAR-8 ovarian) was 510 nM. For the same compound, the TGI (OVCAR-8 ovarian) was over 100000 nM, the GI50 (KM12 colon) was 670 nM and the TGI (KM12 colon) was over 100000 nM. It also gave a GI50 (NCI-H522 lung) of 13000 nM, a TGI (NCI-H522 lung) of over 100000 nM and a GI50 (NCI-H226 lung) of 11000 nM. The TGI (NCI-H226 lung) was over 94600 nM, the GI50 (NCI-H460 lung) was 785 nM and the TGI (NCI-H460 lung) was over 100000 nM. For the same compound, the GI50 (786-0 renal) was 220 nM, the TGI (786-0 renal) was 709 nM and the GI50 (SK-MEL-28 melanoma) was 77200 nM. For the same compound, the TGI (SK-MEL-28 melanoma) was over 100000 nM, the GI50 (SF-268 CNS) was 3920 nM and the TGI (SF-268 CNS) was over 100000 nM. For the same compound, the GI50 (HS 578T breast) was 417 nM, the TGI (HS 578T breast) was 26100 nM and the GI50 (CAKI-1 renal) was 518 nM. The TGI (CAKI-1 renal) was 6000 nM, the GI50 (PC-3 prostate) was 20300 nM and the TGI (PC-3 prostate) was over 100000 nM. It also gave a GI50 (RPMI-8226 leukemia) of 680 nM, a GI50 (UACC-62 melanoma) of 464 nM and a TGI (UACC-62 melanoma) of over 100000 nM. The GI50 (SR leukemia) was 112 nM, the TGI (SR leukemia) was over 100000 nM and the GI50 (K-562 leukemia) was 303 nM. The TGI (K-562 leukemia) was over 100000 nM, the GI50 (HOP-92 NSCLC) was 1020 nM and the TGI (HOP-92 NSCLC) was over 55800 nM. It also gave a GI50 (NCI/ADR-RES ovarian) of 393 nM, a TGI (NCI/ADR-RES ovarian) of over 70700 nM and a GI50 (RXF 393 renal) of 61.8 nM. It also gave a TGI (RXF 393 renal) of 270 nM, a GI50 (SNB-75 CNS) of 1530 nM and a TGI (SNB-75 CNS) of 7540 nM. For the same compound, the GI50 (HCT-15 colon) was 540 nM, the TGI (HCT-15 colon) was over 100000 nM and the GI50 (SF-295 CNS) was 328 nM. It also gave a TGI (SF-295 CNS) of over 100000 nM, a GI50 (SK-MEL-2 melanoma) of 492 nM and a TGI (SK-MEL-2 melanoma) of over 100000 nM. It also gave a GI50 (NCI-H23 lung) of 234 nM, a TGI (NCI-H23 lung) of over 100000 nM and a GI50 (U251 CNS) of 7960 nM. For the same compound, the TGI (U251 CNS) was over 100000 nM, the GI50 (TK-10 renal) was 606 nM and the TGI (TK-10 renal) was over 68600 nM. For the same compound, the GI50 (A549 NSCLC) was 1500 nM, the TGI (A549 NSCLC) was over 100000 nM and the GI50 (SW-620 colon) was 2060 nM. It also gave a TGI (SW-620 colon) of over 100000 nM, a GI50 (SK-OV-3 ovarian) of 448 nM and a TGI (SK-OV-3 ovarian) of over 100000 nM. The GI50 (COLO 205 colon) was 2270 nM, the TGI (COLO 205 colon) was 59000 nM and the GI50 (HOP-62 NSCLC) was 646 nM. For the same compound, the TGI (HOP-62 NSCLC) was over 100000 nM, the GI50 (CCRF-CEM leukemia) was 211 nM and the TGI (CCRF-CEM leukemia) was over 100000 nM. For the same compound, the GI50 (SNB-19 CNS) was 692 nM, the TGI (SNB-19 CNS) was over 100000 nM and the GI50 (SN12C renal) was 1780 nM. It also gave a TGI (SN12C renal) of over 100000 nM, a GI50 (EKVX NSCLC) of 2320 nM and a TGI (EKVX NSCLC) of over 31600 nM. It also gave a GI50 (HL-60(TB) leukemia) of 318 nM, a TGI (HL-60(TB) leukemia) of 4510 nM and a GI50 (MOLT-4 leukemia) of 279 nM. It also gave a TGI (MOLT-4 leukemia) of over 100000 nM, a GI50 (IGROV1 ovarian) of 409 nM and a TGI (IGROV1 ovarian) of over 100000 nM. It also gave a GI50 (OVCAR-5 ovarian) of 478 nM, a TGI (OVCAR-5 ovarian) of over 100000 nM and a GI50 (UO-31 renal) of 232 nM. It also gave a TGI (UO-31 renal) of 1060 nM, a GI50 (HT29 colon) of 1010 nM and a TGI (HT29 colon) of over 100000 nM.
